Reference: patent US7932262B2 (Novartis AG, priority 2006, dated 2011)
Where two headings read alike, the source gives them in different places.

Columns and labels:
PDK1 kinase = target: T1, PDK1 kinase (Homo sapiens, UniProt O15530); test: PDK1 Kinase Alpha Screen Assay; assay type: biochemical; settings: PDK1 Kinase Alpha Screen Assay; read-out: PDK1 IC50
T1 sequence (O15530 1-556): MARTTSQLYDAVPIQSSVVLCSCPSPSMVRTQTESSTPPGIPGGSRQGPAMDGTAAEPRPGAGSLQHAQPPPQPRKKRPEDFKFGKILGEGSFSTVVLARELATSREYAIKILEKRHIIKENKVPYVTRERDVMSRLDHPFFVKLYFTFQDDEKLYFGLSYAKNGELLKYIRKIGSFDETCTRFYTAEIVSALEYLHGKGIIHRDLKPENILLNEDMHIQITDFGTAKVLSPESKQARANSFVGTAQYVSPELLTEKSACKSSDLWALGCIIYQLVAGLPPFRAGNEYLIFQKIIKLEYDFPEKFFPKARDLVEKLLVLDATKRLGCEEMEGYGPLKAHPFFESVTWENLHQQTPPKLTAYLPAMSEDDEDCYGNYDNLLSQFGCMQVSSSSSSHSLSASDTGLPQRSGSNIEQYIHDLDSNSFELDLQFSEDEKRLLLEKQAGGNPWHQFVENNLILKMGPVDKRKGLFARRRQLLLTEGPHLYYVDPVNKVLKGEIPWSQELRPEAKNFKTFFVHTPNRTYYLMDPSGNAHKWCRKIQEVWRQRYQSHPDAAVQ
How it was run: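 Compound in DMSO added to PDK1-4 peptide; PDK1/ATP mix starts reaction (final 50 nM peptide, 10 uM ATP). Runs 3-18 hours, stopped with 90 mM EDTA buffer. Antibody/bead mix added, developed overnight at room temperature, then AlphaScreen signal read.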

PC-3 cells = test: Cell Proliferation Assay (Cell Titer Glo), PC-3 cell line; assay type: cell-based; settings: PC3, read-out: CPEC50 PC3
How it was run: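 PC-3 cells, 1000 cells/well, left to adhere 3-5 h, then exposed for 3 days at 37° C to compounds as 1:3 serial dilutions from 500× DMSO stocks diluted in growth medium. Medium then replaced with fresh medium and viability read by Cell Titer Glo luminescence.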

[1] = Homo sapiens, PC-3, Cell Proliferation Assay

Row | Structure (SMILES) | IC50 (PDK1 kinase) [µM] | EC50 (PC-3 cells; [1]) [µM] | EC50 (PC-3 cells; Cell Proliferation Assay) [µM]
1 | Fc1ccc(Nc2ncc3cccc(OC4CCNCC4)c3n2)cc1C1=CCNCC1 [Compound 487, N-(4-fluoro-3-(1,2,3,6-tetrahydropyridin-4-yl)phenyl)-8-(piperidin-4-yloxy)quinazolin-2-amine] | < 5 | < 5 | 
2 | CC(=O)NCCNC(=O)c1ccc(Nc2ncc3cccc(OC4CCNCC4)c3n2)cc1F [Compound 496, N-(2-acetamidoethyl)-2-fluoro-4-(8-(piperidin-4-yloxy)quinazolin-2-ylamino)benzamide] | < 5 | 5 to 10 | 
3 | CC(C)N1CCC(Oc2cccc3cnc(N)nc23)CC1 [Compound 523, 8-(1-isopropylpiperidin-4-yloxy)quinazolin-2-amine] | 5 to 10 | 5 to 10 | 
4 | Nc1ncc2cccc(O)c2n1 [Compound 524, 2-aminoquinazolin-8-ol] | 10 to 25 | < 5 | 
5 | CC(C)N1CCC(Oc2cccc3cnc(Nc4cccc(NC(=O)N5CCCC5)c4)nc23)CC1 [Compound 525, N-(3-(8-(1-isopropylpiperidin-4-yloxy)quinazolin-2-ylamino)phenyl)pyrrolidine-1-carboxamide] | < 5 | < 5 | 
6 | COc1cc(Nc2ncc3cccc(OC4CCN(C(C)C)CC4)c3n2)cc(OC)c1 [Compound 526, N-(3,5-dimethoxyphenyl)-8-(1-isopropylpiperidin-4-yloxy)quinazolin-2-amine] | < 5 | 5 to 10 | 
7 | CC(C)N1CCC(Oc2cccc3cnc(Nc4cccc(F)c4)nc23)CC1 [Compound 527, N-(3-fluorophenyl)-8-(1-isopropylpiperidin-4-yloxy)quinazolin-2-amine] | < 5 | < 5 | 
8 | CC(C)N1CCC(Oc2cccc3cnc(Nc4cccc(Cl)c4)nc23)CC1 [Compound 528, N-(3-chlorophenyl)-8-(1-isopropylpiperidin-4-yloxy)quinazolin-2-amine] | < 5 | < 5 | 
9 | CC(C)N1CCC(Oc2cccc3cnc(Nc4cccc(C(F)(F)F)c4)nc23)CC1 [Compound 529, 8-(1-isopropylpiperidin-4-yloxy)-N-(3-(trifluoromethyl)phenyl)quinazolin-2-amine] | < 5 | < 5 | 
10 | CC(C)N1CCC(Oc2cccc3cnc(Nc4cccc(C#N)c4)nc23)CC1 [Compound 530, 3-(8-(1-isopropylpiperidin-4-yloxy)quinazolin-2-ylamino)benzonitrile] | < 5 | < 5 | 
11 | COc1cccc(Nc2ncc3cccc(OC4CCN(C(C)C)CC4)c3n2)c1 [Compound 531, 8-(1-isopropylpiperidin-4-yloxy)-N-(3-methoxyphenyl)quinazolin-2-amine] | < 5 | 5 to 10 | 
12 | CC(C)N1CCC(Oc2cccc3cnc(Nc4ccccc4F)nc23)CC1 [Compound 532, N-(2-fluorophenyl)-8-(1-isopropylpiperidin-4-yloxy)quinazolin-2-amine] | 5 to 10 | 5 to 10 | 
13 | CC(C)N1CCC(Oc2cccc3cnc(Nc4cc(F)cc(F)c4)nc23)CC1 [Compound 533, N-(3,5-difluorophenyl)-8-(1-isopropylpiperidin-4-yloxy)quinazolin-2-amine] | < 5 | < 5 | 
14 | CC(C)N1CCC(Oc2cccc3cnc(Nc4ccccc4)nc23)CC1 [Compound 534, 8-(1-isopropylpiperidin-4-yloxy)-N-phenylquinazolin-2-amine] | < 5 | < 5 | 

The next lines start with the values.

Row | IC50 (PDK1 kinase) [µM] | EC50 (PC-3 cells; [1]) [µM] | EC50 (PC-3 cells; Cell Proliferation Assay) [µM] | Structure (SMILES)
15 | < 5 | < 5 |  | CN1CCN(C(=O)c2ccc(Nc3ncc4cccc(OC5CCNCC5)c4n3)cc2F)CC1 [Compound 478, (2-fluoro-4-(8-(piperidin-4-yloxy)quinazolin-2-ylamino)phenyl)(4-methylpiperazin-1-yl)methanone]
16 | < 5 | < 5 |  | c1ccc(Nc2ncc3cccc(OC4CCNCC4)c3n2)cc1 [Compound 479, N-phenyl-8-(piperidin-4-yloxy)quinazolin-2-amine]
17 | < 5 | < 5 |  | Fc1cccc(Nc2ncc3cccc(OC4CCNCC4)c3n2)c1 [Compound 480, N-(3-fluorophenyl)-8-(piperidin-4-yloxy)quinazolin-2-amine]
18 | < 5 | 5 to 10 |  | O=C(O)c1ccc(Nc2ncc3cccc(OC4CCNCC4)c3n2)cc1Cl [Compound 481, 2-chloro-4-(8-(piperidin-4-yloxy)quinazolin-2-ylamino)benzoic acid]
19 | < 5 | < 5 |  | CC(C)NC(=O)c1ccc(Nc2ncc3cccc(OC4CCNCC4)c3n2)cc1Cl [Compound 482, 2-chloro-N-isopropyl-4-(8-(piperidin-4-yloxy)quinazolin-2-ylamino)benzamide]
20 | < 5 | < 5 |  | O=C(c1ccc(Nc2ncc3cccc(OC4CCNCC4)c3n2)cc1Cl)N1CCOCC1 [Compound 483, (2-chloro-4-(8-(piperidin-4-yloxy)quinazolin-2-ylamino)phenyl)(morpholino)methanone]
21 | < 5 | < 5 |  | Fc1ccc(Nc2ncc3cccc(OC4CCNCC4)c3n2)cc1Br [Compound 484, N-(3-bromo-4-fluorophenyl)-8-(piperidin-4-yloxy)quinazolin-2-amine]
22 | < 5 | < 5 |  | O=C(NC1CC1)c1ccc(Nc2ncc3cccc(OC4CCNCC4)c3n2)cc1Cl [Compound 485, 2-chloro-N-cyclopropyl-4-(8-(piperidin-4-yloxy)quinazolin-2-ylamino)benzamide]
23 | < 5 | < 5 |  | COCCNC(=O)c1ccc(Nc2ncc3cccc(OC4CCNCC4)c3n2)cc1Cl [Compound 486, 2-chloro-N-(2-methoxyethyl)-4-(8-(piperidin-4-yloxy)quinazolin-2-ylamino)benzamide]
24 | < 5 | < 5 |  | O=C(O)c1ccc(Nc2ncc3cccc(OC4CCNCC4)c3n2)cc1 [Compound 488, 4-(8-(piperidin-4-yloxy)quinazolin-2-ylamino)benzoic acid]
25 | < 5 | < 5 |  | N#Cc1ccc(Nc2ncc3cccc(OC4CCNCC4)c3n2)cc1 [Compound 489, 4-(8-(piperidin-4-yloxy)quinazolin-2-ylamino)benzonitrile]
26 | < 5 | < 5 |  | O=C(NC1CC1)c1ccc(Nc2ncc3cccc(OC4CCNCC4)c3n2)cc1 [Compound 490, N-cyclopropyl-4-(8-(piperidin-4-yloxy)quinazolin-2-ylamino)benzamide]
27 | < 5 | < 5 |  | CC(C)NC(=O)c1ccc(Nc2ncc3cccc(OC4CCNCC4)c3n2)cc1 [Compound 491, N-isopropyl-4-(8-(piperidin-4-yloxy)quinazolin-2-ylamino)benzamide]
28 | < 5 | < 5 |  | COCCNC(=O)c1ccc(Nc2ncc3cccc(OC4CCNCC4)c3n2)cc1 [Compound 492]
29 | < 5 | < 5 |  | CS(=O)(=O)CCNC(=O)c1ccc(Nc2ncc3cccc(OC4CCNCC4)c3n2)cc1F [Compound 493, 2-fluoro-N-(2-(methylsulfonyl)ethyl)-4-(8-(piperidin-4-yloxy)quinazolin-2-ylamino)benzamide]
30 | < 5 | 5 to 10 |  | O=C1CN(C(=O)c2ccc(Nc3ncc4cccc(OC5CCNCC5)c4n3)cc2F)CCN1 [Compound 494, 4-(2-fluoro-4-(8-(piperidin-4-yloxy)quinazolin-2-ylamino)benzoyl)piperazin-2-one]
31 | < 5 | < 5 |  | O=C(NC1CCCC1)c1ccc(Nc2ncc3cccc(OC4CCNCC4)c3n2)cc1F [Compound 495, N-cyclopentyl-2-fluoro-4-(8-(piperidin-4-yloxy)quinazolin-2-ylamino)benzamide]
32 | < 5 | < 5 |  | O=C(NCCN1CCCC1)c1ccc(Nc2ncc3cccc(OC4CCNCC4)c3n2)cc1F [Compound 497, 2-fluoro-4-(8-(piperidin-4-yloxy)quinazolin-2-ylamino)-N-(2-(pyrrolidin-1-yl)ethyl)benzamide]
33 | < 5 | 5 to 10 |  | O=C(c1ccc(Nc2ncc3c(C(F)(F)F)ccc(OC4CCNCC4)c3n2)cc1)N1CCOCC1 [Compound 501, morpholino(4-(8-(piperidin-4-yloxy)-5-(trifluoromethyl)quinazolin-2-ylamino)phenyl)methanone]
34 | < 5 |  | < 5 | FC(F)(F)c1ccc(OC2CCNCC2)c2nc(Nc3ccc(N4CCOCC4)cc3)ncc12 [Compound 502, N-(4-morpholinophenyl)-8-(piperidin-4-yloxy)-5-(trifluoromethyl)quinazolin-2-amine]
35 | < 5 | 5 to 10 |  | COc1c(NC2CCN(C)CC2)cc(Cl)c2cnc(Nc3ccc(C(=O)N4CCOCC4)cc3)nc12 [Compound 503, (4-(5-chloro-8-methoxy-7-(1-methylpiperidin-4-ylamino)quinazolin-2-ylamino)phenyl)(morpholino)methanone]
